pEC50: −log10 of the molar value.
biological target: T1, human PPARalpha receptor (GR-GAL4-humanPPARalpha-LBD fusion protein) (Homo sapiens, UniProt Q07869); assay: Cellular PPARalpha assay (stably transfected HEK luciferase reporter cell line); assay type: cell-based; conditions: 24 h incubation
T1 construct: amino acids S167-Y468; expressed in transfected cells; host or cells: HEK (human embryo kidney) cells, stably transfected with pcDNA3 carrying the fusion construct
T1 sequence (Q07869 167-468): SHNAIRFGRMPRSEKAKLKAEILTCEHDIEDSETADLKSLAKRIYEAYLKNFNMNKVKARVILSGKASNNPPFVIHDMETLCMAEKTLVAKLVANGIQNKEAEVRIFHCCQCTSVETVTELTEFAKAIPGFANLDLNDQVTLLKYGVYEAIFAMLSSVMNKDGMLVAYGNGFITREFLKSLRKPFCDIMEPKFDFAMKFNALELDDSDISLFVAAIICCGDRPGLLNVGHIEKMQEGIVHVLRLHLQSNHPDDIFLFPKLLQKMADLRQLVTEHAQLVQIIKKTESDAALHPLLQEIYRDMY
Method: (A) Determination of EC50 Values of PPAR Agonists in the Cellular PPARalpha Assay
The potency of substances which bind to human PPAR[…] and activate in an agonistic manner is analyzed using a stably transfected HEK cell line (HEK=human embryo kidney) which is referred to here as PPARalpha reporter cell line. It contains two genetic elements, a luciferase reporter element (pΔM-GAL4-Luc-Zeo) and a PPARalpha fusion protein (GR-GAL4-humanPPARα-LBD) which mediates expression of the luciferase reporter element depending on a PPARalpha ligand. The stably and constitutively expressed fusion protein GR-GAL4-humanPPARalpha-LBD binds in the cell nucleus of the PPARalpha reporter cell line via the GAL4 protein portion to the GAL4 DNA binding motifs 5′-upstream of the luciferase reporter element which is integrated in the genome of the cell line. There is only little expression of the luciferase reporter gene without addition of a PPARalpha ligand if fatty acid-depleted fetal calf serum (cs-FCS) is used in the assay. PPARα ligands bind and activate the PPARα fusion protein and thereby bring about expression of the luciferase reporter gene. The luciferase which is formed can be detected by means of chemi-luminescence via an appropriate substrate.
The PPARalpha reporter cell line was prepared in 2 stages. Firstly, the luciferase reporter element was constructed and stably transfected into HEK cells. For this purpose, five binding sites of the yeast transcription factor GAL4 (each 5′-CGGAGTACTGTCCTCCGAG-3′) (SEQ ID NO:1) were cloned in 5′-upstream of a 68 bp-long minimal MMTV promoter (Genbank Accession # V01175). The minimal MMTV promoter section contains a CCAAT box and a TATA element in order to enable efficient transcription by RNA polymerase II. The cloning and sequencing of the GAL4-MMTV construct took place in analogy to the description of Sambrook J. et. al. (Molecular cloning, Cold Spring Harbor Laboratory Press, 1989). Then the complete Photinus pyralis gene (Genbank Accession # M15077) was cloned in 3′-downstream of the GAL4-MMTV element. After sequencing, the luceriferase reporter element consisting of five GAL4 binding sites, MMTV promoter and luciferase gene was recloned into a plasmid which confers zeocin resistance in order to obtain the plasmid pΔM-GAL4-Luc-Zeo. This vector was transfected into HEK cells in accordance with the statements in Ausubel, F. M. et al. (Current protocols in molecular biology, Vol. 1-3, John Wiley & Sons, Inc., 1995). […] In a second step, the PPARalpha fusion protein (GR-GAL4-humanPPARalpha-LBD) was introduced into the stable cell clone described. For this purpose, initially the cDNA coding for the N-terminal 76 amino acids of the glucocorticoid receptor (Genbank Accession # P04150) was linked to the cDNA section coding for amino acids 1-147 of the yeast transcription factor GAL4 (Genbank Accession # P04386). The cDNA of the ligand-binding domain of the human PPARalpha receptor (amino acids S167-Y468; Genbank Accession # S74349) was cloned in at the 3′-end of this GR-GAL4 construct. The fusion construct prepared in this way (GR-GAL4-humanPPARalpha-LBD) was recloned into the plasmid pcDNA3 (from Invitrogen) in order to enable constitutive expression therein by the cytomegalovirus promoter. This plasmid was linearized with a restriction endonuclease and stably transfected into the previously described cell clone containing the luciferase reporter element. The finished PPARalpha reporter cell line which contains a luciferase reporter element and constitutively expresses the PPARalpha fusion protein (GR-GAL4-human PPARalpha-LBD) was isolated by selection with zeocin (0.5 mg/ml) and G418 (0.5 mg/ml).
The activity of PPARalpha agonists is determined in a 3-day assay which is described below: […]

pEC50	SMILES
7.54	Cc1ccc(-c2nc(COC3CCCC(C(=O)NC(C)(C)C(=O)O)C3)c(C)o2)cc1 (racemic) [Example 5, 2-Methyl-2-{[(1R,3S)/(1S, 3R)-3-(5-methyl-2-p-tolyloxazol-4-ylmethoxy)-cyclohexanecarbonyl]amino}propionic acid]
8.14	Cc1ccc(-c2nc(COC3CCCC(C(=O)NC4(C(=O)O)CCCC4)C3)c(C)o2)cc1 (racemic) [Example 25, 1-{[(1R,3S)/(1S,3R)-3-(5-Methyl-2-p-tolyloxazol-4-ylmethoxy)cyclohexanecarbonyl]amino}cyclopentanecarboxylic acid]
7.00	Cc1ccc(-c2nc(COC3CCCC(C(=O)N[C@@H](C)C(=O)O)C3)c(C)o2)cc1 (stereo partly drawn) [Example 3, (S)-2-{[(1R,3S)/(1S,3R)-3-(5-Methyl-2-p-tolyloxazol-4-ylmethoxy)cyclohexanecarbonyl]amino}propionic acid]
7.82	Cc1oc(-c2cccc(C(F)(F)F)c2)nc1COC1CCCC(C(=O)N[C@H](C(=O)O)C(C)C)C1 (stereo partly drawn) [Example 11, (S)-3-Methyl-2-({(1R,3S)/(1S,3R)-3-[5-methyl-2-(3-trifluoromethylphenyl)-oxazol-4-ylmethoxy]cyclohexanecarbonyl}amino)butyric acid]
8.30	CCc1oc(-c2ccc(C)cc2)nc1CO[C@H]1CCC[C@@H](C(=O)N[C@H](C(=O)O)C(C)C)C1 [Example 21a, (S)-3-methyl-2-{[(1R,3S)-3-(5-ethyl-2-p-tolyloxazol-4-ylmethoxy)cyclohexanecarbonyl]amino}butyric acid]
7.49	CC(C)c1oc(-c2ccc(C(F)(F)F)cc2)nc1COCC1CCCC(C(=O)N[C@H](C(=O)O)C(C)C)C1 (some centres unmarked) [Example 43]
8.35	Cc1oc(-c2cccc(C(F)(F)F)c2)nc1COCC1CCCC(C(=O)N[C@H](C(=O)O)C(C)C)C1 (some centres unmarked) [Example 44]
8.92	CCc1oc(-c2ccc(C(F)(F)F)cc2)nc1COCC1CCCC(C(=O)N[C@H](C(=O)O)C(C)C)C1 (some centres unmarked) [Example 50]

— US7365084B2, “Cycloalkyl-substituted amino acid derivatives, processes for their preparation and their use as pharmaceuticals” (SanoFi-Aventis Deutschland GmbH, priority 2003, dated 2008)
